Experimental data from ChEMBL document CHEMBL3507680, “University of Dundee, Gates Library screen for HepG2 cell viability”.

Assay: Human HepG2 cell viability assay in 384 well format
Assay type: toxicity, cell-based
Set-up: dose 125 nL, time 70.5 hour; concentration not given beside the values
Conditions: HepG2 cells, read-out: Inhibition

SMILES	cytotoxicity at 70.5 h [%]
CN(CC1CCCCC1)C(=O)c1cn(C)nc1-c1cccnc1	3.52
CCN(CC1CCCO1)C(=O)Nc1cccc(Cl)c1OC (centres undefined)	24.1
CNS(=O)(=O)c1ccc(C(=O)N2CCCC2c2ccccc2)o1 (centres undefined)	-14.1
CCc1nc(N2CCCC(CCCOC)(C(=O)O)C2)ncc1C (centres undefined)	-10.1
CC(C)c1nnc2n1CC(CNCc1ccc3c(c1)OCCO3)CC2 (centres undefined)	-3.48
Cc1ccsc1[C@@H]1CCN(C(=O)CCOc2ccccc2)C[C@H]1O	-8.93
CCCNC(=O)CN1CCN(c2nc(CC)ns2)CC1	-9.67
Cc1cc(C)n(C2CCCN(C(=O)CCOc3cccc(F)c3)C2)n1 (centres undefined)	-2.12
CNC(=O)c1cccnc1N1CCN(C/C=C/c2ccccc2)CC1	6.62
COCCCN(CCOC)C(=O)Nc1ccc(Br)cc1	-7.21
CC(C)c1cnc(CN(C)C2CCN(CCS(C)(=O)=O)C2)o1 (centres undefined)	2.71
CC(=O)N[C@H]1CCN(c2nc(C)nc3c2c(C)nn3C)C1	-8.71
Cc1nc(CCNC2CCN(Cc3ccccc3)C2)sc1C (centres undefined)	-4.05
O=C(NCCCc1ccc(O)cc1)C1(O)Cc2ccccc2C1	-8.24
CNc1cncc(C2CCCN2S(=O)(=O)c2ccc(F)cc2)n1 (centres undefined)	-2.18
CC(C)CC(NC(=O)CSCC(N)=O)c1cccs1 (centres undefined)	-5.44
CN1CCC(c2nnc(CN3CCCCC3)n2C)CC1	-9.09
CN1CCc2[nH]nc(C(=O)N3CCC4(CN(C)C(=O)O4)C3)c2C1 (centres undefined)	-6.62
O=C(O)C1(Oc2ccccc2F)CCN(C/C=C/c2ccco2)CC1	-7.74
Cc1cccc(C(=O)N2CCn3cc(CNC(=O)CC4CC4)nc3C2)n1	-4.69
COc1nn(C)cc1C(=O)NCC1(O)CCc2ccccc2C1 (centres undefined)	-5.25
CNS(=O)(=O)c1ccc(C(=O)N2CCCC2c2cnn(C)c2)o1 (centres undefined)	23
Cc1c[nH]c(CN(C)C(C(=O)O)c2c(F)cccc2OC(C)C)n1 (centres undefined)	1.64

SMILES	cytotoxicity at 70.5 h [%]
CC(C)(C)n1ncc2c1NC(=O)CC2c1ccc(C#N)cc1 (centres undefined)	-10
Cc1ccc(C(=O)N2CCCCC2c2[nH]ncc2S(C)(=O)=O)s1 (centres undefined)	12.5
COCc1cc(CN(C)C(C(=O)O)c2cc(C)c(OC)c(C)c2)n[nH]1 (centres undefined)	-2.3
c1ccc(CCN2CCC(OCC3CCCCO3)CC2)nc1 (centres undefined)	5.3
OC1(CN2CCCCC2)CCN(c2nccc(C(F)(F)F)n2)C1 (centres undefined)	18.4
O=C(OCc1cc(=O)n2cc(Br)ccc2n1)c1ccc2c(c1)OCO2	-5.88
COC(=O)C(C)(C)NC(=O)c1cc2sc(N(C)C)nc2s1	-13.9
Cc1ccc(CN(C)C(=O)c2scnc2C)cc1	-3.98
Cc1ccc2cc(CN(C)Cc3nccs3)c(=O)[nH]c2c1	-11.3
COc1ccc2[nH]cc(C(=O)CNc3nc(C)cs3)c2c1	6.66
CCN(C)C1CCCc2nc(C)sc21 (centres undefined)	-5.07
CN(C)c1nc2c(c(N(C)C)n1)CCN(C(=O)CN1CCC(O)CC1)C2	-7.75
CC(Cn1ccnc1)NC(=O)C1(c2ccccc2)CC1 (centres undefined)	-10.4
CCNc1cc2c(nn1)CCN(C(=O)Cc1c(C)nn(C)c1C)C2	-2.18
CN(Cc1cnn(C)c1)C(=O)Nc1cccnc1-n1cccn1	14.6
CCc1cnc(CN(C)C2CCN(Cc3nnc(C4CC4)n3C)C2)o1 (centres undefined)	-2.36
O=C(Cc1ccsc1)N1CCN(CCOc2ccccc2)CC1	-5.67
Cc1nc(CCNC(=O)C2CC(=O)N(C(C)C)C2)cs1 (centres undefined)	32.3
CCS(=O)(=O)N[C@H]1CN(CC(C)(C)N2CCOCC2)C[C@@H]1C1CC1	-18.9
O=C(Cn1cccn1)N1CCC(Cn2cc(-c3ccsc3)nn2)CC1	-10.6
COc1cc2cc(C(=O)N[C@@H](C)C(=O)O)n(C)c2c(OC)c1OC	-4.88
Cc1nc(O)cc(CN2CC=C(c3cnn(C(C)(C)C)c3)CC2)n1	-10.5
Cc1noc(C)c1CN1CC2(CCN(C(=O)c3ccc[nH]3)C2)CC1=O (centres undefined)	-6.16

SMILES	cytotoxicity at 70.5 h [%]
COCCN(C)CCN1CC2(CCN(C3CCCOC3)CC2)OC1=O (centres undefined)	3.4
COCCN1CCC2(COCc3cnc(-c4ccccc4)nc32)C1 (centres undefined)	-8.87
CC(=O)N(Cc1noc(C)n1)C1CCN(Cc2cccc(C#N)c2)C1 (centres undefined)	30.1
Cc1cncc(C(=O)NCCSCc2cccs2)c1	-3.14
CCc1nn(C)c(Cl)c1CN(CCOC)Cc1cnn(C)c1	0.921
CN1CCOC(CNCCOc2ccc(C#N)cc2)C1 (centres undefined)	-5.57
CC[C@@]1(O)CCN(C(=O)c2ccc(-c3cccc(F)c3)cc2)C[C@H]1O	-7.02
CCN(C)S(=O)(=O)NCC1CCCN(Cc2ccccc2F)C1 (centres undefined)	-4.79
CN(C)c1cc(CNC(=O)c2ccccc2S(C)(=O)=O)ccn1	0.46
COc1ccccc1CCN(C)C(C)c1nc(-c2cccnc2)no1 (centres undefined)	21.2
CC(NC(=O)NCCNc1cccc(F)c1C#N)c1cccs1 (centres undefined)	-4.54
CC(=O)N1CCN(C(=O)CNc2ccc3sccc3c2)CC1	-4.15
CC(NC(=O)Nc1cccnc1N1CCCC1)c1nncn1C (centres undefined)	-13.7
O=C(O)COc1ccc(CN2CCCC(CCc3ccccc3)C2)cc1 (centres undefined)	20.1
O=C(CCc1ccc(C(F)(F)F)cc1)N1CCCS1(=O)=O	-4.91
CC(C)NC(=O)c1cc2c(c3ccccc3n2C)n1C(=O)N(C)C	-9.14
Cc1cnc(N2CC[C@@]3(O)CCCC[C@H]3C2)nc1-c1ccnn1C	-7.52
Cc1cnc(C(NC(=O)NCC2(CO)CC2)C2CC2)s1 (centres undefined)	2.13
c1ccc(C2=NOC3(CCN(Cc4c[nH]c5ccccc45)CC3)C2)cc1	11.1
CCOC1COC2(CCN(Cc3ccco3)CC2)C1 (centres undefined)	18.2
Cc1cccnc1CN1CCC(c2nnc(Cn3cccn3)n2C)CC1	-7.96
O=C(NCc1nnc2ccccn12)N1CCOC(c2ccsc2)C1 (centres undefined)	-14.6
CCOc1ccc(C2SCC(=O)Nc3c2c(=O)[nH]n3C(C)C)cc1 (centres undefined)	-11.8

SMILES	cytotoxicity at 70.5 h [%]
COC(=O)c1ccc(Cn2cccc(C(F)(F)F)c2=O)s1	-2.65
COc1ccnc(NC(Cc2ccccc2)C(=O)N(C)C)n1 (centres undefined)	5.68
Cc1ccc(C(=O)N2CC[C@@]3(O)CCN(C(=O)N(C)C)C[C@H]3C2)cc1Cl	-8.07
CCN1C(=O)CCCC12CCCN(C(=O)c1ccncc1F)C2 (centres undefined)	-2.27
Cc1ccc2[nH]c(CN(C)c3cc(CN)nc(C)n3)nc2c1	0.934
COC(=O)[C@@H]1CCCN1C(=O)c1cn(CCCc2ccccc2)nn1	-19.4
Cc1cc(Cn2c(=O)c3c(C(F)(F)F)cc(C)nc3n2C)on1	-3.01
O=C(NCCNC(=O)C1CC1)c1cnc(-c2ccccc2)nc1	16.6
NC(=O)c1c(NC(=O)CCCC(=O)O)sc2c1CCc1ccccc1-2	10.4
CNc1snc(C)c1C(=O)N1CCCC(n2cc(C)cn2)C1 (centres undefined)	-8.17
CN1CSC[C@H]1C(=O)N1CCN(Cc2cccc(Cl)c2)CC1	-5.08
COCCNC(=O)C1CN(Cc2ccncc2)Cc2ccnn2C1 (centres undefined)	-14.1
c1ccc2oc(CCCN3CCCC3c3noc(C4CC4)n3)nc2c1 (centres undefined)	17.9
O=C(COc1coc(CN2CCCC2)cc1=O)NCc1ccccc1Cl	3.62
Cc1nn(CC(C)C)c(N(C)C)c1CNCc1cc2ccccc2[nH]1	5.6
Cc1cnn(CC2CCCN2CC(=O)Nc2nccs2)c1 (centres undefined)	3.35
c1ccc(C(Cn2cccn2)Nc2cnccn2)cc1 (centres undefined)	-12.5
Cc1cccc(CN2CC3C[C@]3(NC(=O)c3cccc(F)c3)C2)n1 (some centres undefined)	-12.2
Cc1ccc(C(=O)Nc2ccc(S(=O)(=O)/N=C3\CCCN3C)cc2)s1	-10
CCOCCCNS(=O)(=O)c1ccc2c(c1)NC(=O)C(C)O2 (centres undefined)	12.7
NC(=O)C1CN(C(=O)Nc2ccccc2SC2CCCC2)CCO1 (centres undefined)	-3.34
O=C1CCC(c2ccc(Cl)cc2)=NN1CN1CCCCCC1	-4.16
O=C(NCC(O)c1ccc(F)c(F)c1)c1cccnc1O (centres undefined)	-3.92

SMILES	cytotoxicity at 70.5 h [%]
CC(C)C(=O)N1CCCC2(CCCN2CC2CCCC2)C1 (centres undefined)	-2.41
CC(C)(C)NS(=O)(=O)c1ccccc1CNCc1ccccc1	-5.72
CC(C(=O)N1CCc2sccc2C1)N1CCC(S(N)(=O)=O)CC1 (centres undefined)	-4.51
Cn1c(N)c2c(=O)n(C)c(-c3ccc(Cl)cc3Cl)cc2c(C#N)c1=O	-4.83
O=c1[nH]c2ncccc2n1C1CCNCC1	-11
COCC(=O)N1CCN(Cc2cc(-c3ccncc3)nn2C)CC1	-3.57
CC(C)(NC(=O)c1ccc(-c2ccc(F)cc2)s1)C(N)=O	4.62
CSCc1noc(CN2CC(Cc3ccccc3)CC2=O)n1 (centres undefined)	-13
CCn1ncc2c1C(COCC1CC1)CN(S(=O)(=O)N(C)C)C2 (centres undefined)	-7.75
Cc1cc(C)n(C2CN(C(=O)Cn3c(C)cc(=O)c4ccccc43)C2)n1	-5.3
COC(=O)[C@@H]1Cc2ncn(C)c2CN1S(=O)(=O)c1ccc(C)cc1	-8.32
CC1CCC(O)(Cn2ncnc2-c2cccc(C#N)c2)CC1 (centres undefined)	-5.94
Cc1cc(C(=O)Nc2ccc3oc(=O)n(CCN(C)C)c3c2)c(C)o1	9.45
CCCN(CCc1cccc(F)c1)c1ccc2nnnn2n1	-22.2
O=C1CCC(C(=O)NCc2nn(-c3ccccc3)c3c2CCC3)CN1 (centres undefined)	4.23
c1cnnc(N2CCCC2CNc2cnc3ccccc3n2)c1 (centres undefined)	-2.61
NC(=O)C1CCCN1CCCc1ccc(C(F)(F)F)cc1 (centres undefined)	-5.39
COCCN1C(=O)CCC12CCN(C(=O)NC(C)C)CC2	-25.3
Cc1nc2[nH]cnc(NCCCN3CCOCC3)c-2n1	-6.34
CCOc1ccccc1-c1noc(CN2CCOC(CN(C)C)C2)n1 (centres undefined)	-10.8
CNc1ccnc(N2C[C@@H](C)[C@](O)(C3CC3)C2)n1	-3.1
CC(Cn1cccn1)NC(=O)Nc1ccc(F)cc1 (centres undefined)	-4.1
